We go through 17 compounds from US12570642B2, “GLP-IR modulating compounds” (Gilead Sciences, Inc., priority 2021, dated 2026).

The test concerns the target GLP-1R (Homo sapiens, UniProt P43220). As to the kind of experiment: GLP-1R Activation - cAMP Assay. As to conditions: cAMP increase in CHO cells stably expressing GLP-1R; each compound run on one of the two cAMP assays (Assay 1 or Assay 2, not specified). It counts as cell-based. The method, boiled down:
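CHO cells stably expressing GLP-1R, plated at 1,000 cells/well overnight, then equilibrated 1 h in HBSS with 20 mM Hepes and 0.1% BSA. Agonist added as 10-point dose response for 30 min at 37 °C. cAMP measured by HTRF (Cisbio Gs Dynamic kit); EC50 from sigmoidal fit.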
A general note: Changes in cAMP serve as a functional read-out for many G protein-coupled receptors.

GLP-1R, sequence (P43220 24-463): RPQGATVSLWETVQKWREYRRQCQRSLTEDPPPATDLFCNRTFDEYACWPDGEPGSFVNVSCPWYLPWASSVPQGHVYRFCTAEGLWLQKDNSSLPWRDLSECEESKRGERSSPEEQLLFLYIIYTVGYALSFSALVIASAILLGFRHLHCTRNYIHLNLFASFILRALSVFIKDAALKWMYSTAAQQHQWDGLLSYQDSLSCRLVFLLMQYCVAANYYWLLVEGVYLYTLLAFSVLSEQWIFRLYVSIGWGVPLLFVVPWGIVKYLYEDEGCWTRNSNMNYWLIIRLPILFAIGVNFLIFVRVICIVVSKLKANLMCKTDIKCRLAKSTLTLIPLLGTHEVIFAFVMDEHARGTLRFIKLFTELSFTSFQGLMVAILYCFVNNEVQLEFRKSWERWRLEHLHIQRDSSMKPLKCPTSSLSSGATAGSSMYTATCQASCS

What is called EC50 is the concentration that produces a half-maximal response. A higher EC50 goes with a less potent agent. For `CC1(C)COC[C@H]1n1c(Cc2cc(F)c(-c3cccc(OCc4ccc(C#N)cc4F)n3)cc2F)nc2cc(F)c(C(=O)O)cc21` [Example 419, (S)-2-(4-(6-((4-cyano-2-fluorobenzyl)oxy)pyridin-2-yl)-2,5-difluorobenzyl)-1-(4,4-dimethyltetrahydrofuran-3-yl)-5-fluoro-1H-benzo[d]imidazole-6-carboxylic acid], the midpoint of the response, the EC50, lay at 0.112 nM. Under `Cc1cnc(COc2cccc(-c3cc(F)c(Cc4nc5ccc(C(=O)O)cc5n4[C@@H]4COCC4(C)C)cc3F)n2)c(F)c1` [Example 237, (S)-2-(2,5-difluoro-4-(6-((3-fluoro-5-methylpyridin-2-yl)methoxy)pyridin-2-yl)benzyl)-1-(4,4-dimethyltetrahydrofuran-3-yl)-1H-benzo[d]imidazole-6-carboxylic acid] stands 0.52 nM; under `CC1(C)COCC1n1c(Cc2cc(F)c(-c3cccc(OCc4ccc(C#N)cc4F)n3)cc2F)nc2c(Br)cc(C(=O)O)cc21` (centres unmarked) [Example 13, 4-bromo-2-(4-(6-((4-cyano-2-fluorobenzyl)oxy)pyridin-2-yl)-2,5-difluorobenzyl)-1-(4,4-dimethyltetrahydrofuran-3-yl)-1H-benzo[d]imidazole-6-carboxylic Acid], 0.19 nM; under `Cc1cc(Cc2nc3ccc(C(=O)O)cc3n2C[C@@H]2CCO2)c(Cl)cc1-c1ccc(F)c(OCc2ccc(C#N)cc2F)n1` [Example 144, (S)-2-(2-chloro-4-(6-((4-cyano-2-fluorobenzyl)oxy)-5-fluoropyridin-2-yl)-5-methylbenzyl)-1-(oxetan-2-ylmethyl)-1H-benzo[d]imidazole-6-carboxylic Acid], 1.08 nM. The figure for `COCCn1c(Cc2cc(F)c(-c3cccc(OCc4ccc(C#N)cc4F)n3)cc2F)nc2c(-c3cnn(CCN4CCOCC4)c3)cc(C(=O)O)cc21` [Example 56, 2-(4-(6-((4-cyano-2-fluorobenzyl)oxy)pyridin-2-yl)-2,5-difluorobenzyl)-1-(2-methoxyethyl)-4-(1-(2-morpholinoethyl)-1H-pyrazol-4-yl)-1H-benzo[d]imidazole-6-carboxylic Acid] is 903 nM; for `CC1(C)COC[C@H]1n1c(Cc2cc(F)c(-c3cccc(OCc4ccccc4C#N)n3)cc2F)nc2ccc(C(=O)O)cc21` [Example 446, (S)-2-(4-(6-((2-cyanobenzyl)oxy)pyridin-2-yl)-2,5-difluorobenzyl)-1-(4,4-dimethyltetrahydrofuran-3-yl)-1H-benzo[d]imidazole-6-carboxylic acid] it is 0.2 nM. The compound `CC1(C)COC[C@H]1n1c(Cc2cc(F)c(-c3ccc(F)c(OCc4ccc(Cl)cc4)n3)cc2F)nc2c(F)cc(C(=O)O)cc21` [Example 228, (S)-2-(4-(6-((4-chlorobenzyl)oxy)-5-fluoropyridin-2-yl)-2,5-difluorobenzyl)-1-(4,4-dimethyltetrahydrofuran-3-yl)-4-fluoro-1H-benzo[d]imidazole-6-carboxylic acid] had a concentration for a half-maximal effect (EC50) of 0.047 nM. Under `CC1(C)COC[C@H]1n1c(Cn2cc(F)c(-c3cccc(OCc4ccc(Cl)cc4F)n3)cc2=O)nc2c(F)cc(C(=O)O)cc21` [Example 137, (S)-2-((6-((4-chloro-2-fluorobenzyl)oxy)-5′-fluoro-2′-oxo-[2,4′-bipyridin]-1′(2′H)-yl)methyl)-1-(4,4-dimethyltetrahydrofuran-3-yl)-4-fluoro-1H-benzo[d]imidazole-6-carboxylic Acid] stands 0.039 nM; under `CC1(C)COC[C@H]1n1c(Cc2cc(F)c(-c3ccc(F)c(OCc4ccc(C#N)cc4)n3)cc2F)nc2c(F)cc(C(=O)O)cc21` [Example 325, (S)-2-(4-(6-((4-cyanobenzyl)oxy)-5-fluoropyridin-2-yl)-2,5-difluorobenzyl)-1-(4,4-dimethyltetrahydrofuran-3-yl)-4-fluoro-1H-benzo[d]imidazole-6-carboxylic acid], 0.155 nM; under `Cn1cc(-c2ccc(COc3cccc(-c4cc(F)c(Cc5nc6ccc(C(=O)O)cc6n5[C@@H]5COCC5(C)C)cc4F)n3)c(F)c2)cn1` [Example 535, (S)-2-(2,5-difluoro-4-(6-((2-fluoro-4-(1-methyl-1H-pyrazol-4-yl)benzyl)oxy)pyridin-2-yl)benzyl)-1-(4,4-dimethyltetrahydrofuran-3-yl)-1H-benzo[d]imidazole-6-carboxylic acid], 0.099 nM. `CC1(C)COC[C@H]1n1c(Cc2ccc(-c3cccc(OCc4ccc(Cl)cc4F)n3)cc2F)nc2ccc(C(=O)O)cc21` [Example 331, (S)-2-(4-(6-((4-chloro-2-fluorobenzyl)oxy)pyridin-2-yl)-2-fluorobenzyl)-1-(4,4-dimethyltetrahydrofuran-3-yl)-1H-benzo[d]imidazole-6-carboxylic acid] came in with an EC50 of 0.218 nM. The figure for `CC1(C)COC[C@H]1n1c(Cc2cc(F)c(-c3cccc(OCc4ccc(Cl)nc4F)n3)cc2F)nc2ccc(C(=O)O)cc21` [Example 249, (S)-2-(4-(6-((6-chloro-2-fluoropyridin-3-yl)methoxy)pyridin-2-yl)-2,5-difluorobenzyl)-1-(4,4-dimethyltetrahydrofuran-3-yl)-1H-benzo[d]imidazole-6-carboxylic acid] is 0.137 nM.

`CC1(C)COC[C@H]1n1c(Cc2cc(F)c(-c3cccc(OCc4ccc(C5CC5)cc4)n3)cc2F)nc2ccc(C(=O)O)cc21` [Example 431, (S)-2-(4-(6-((4-cyclopropylbenzyl)oxy)pyridin-2-yl)-2,5-difluorobenzyl)-1-(4,4-dimethyltetrahydrofuran-3-yl)-1H-benzo[d]imidazole-6-carboxylic acid]: a half-maximal effect (EC50) was put at 0.377 nM.

Regarding `CC1(C)COC[C@H]1n1c(Cc2cc(F)c(-c3cccc(OCc4cc(F)c(F)cc4F)n3)cc2F)nc2ccc(C(=O)O)cc21` [Example 455, (S)-2-(2,5-difluoro-4-(6-((2,4,5-trifluorobenzyl)oxy)pyridin-2-yl)benzyl)-1-(4,4-dimethyltetrahydrofuran-3-yl)-1H-benzo[d]imidazole-6-carboxylic acid], the EC50 was 0.126 nM. With `COCCn1c(Cc2cc(C)c(-c3ccc(F)c(OCc4ccc(C#N)cc4F)n3)cc2Cl)nc2c(F)cc(C(=O)O)cc21` [Example 225, 2-(2-chloro-4-(6-((4-cyano-2-fluorobenzyl)oxy)-5-fluoropyridin-2-yl)-5-methylbenzyl)-4-fluoro-1-(2-methoxyethyl)-1H-benzo[d]imidazole-6-carboxylic acid], the response was half-maximal at 7.14 nM (EC50). The figure for `Cn1ncc2cc(COc3cccc(-c4cc(F)c(Cc5nc6ccc(C(=O)O)cc6n5C[C@@H]5CCO5)cc4F)n3)ccc21` [Example 526, (S)-2-(2,5-difluoro-4-(6-((1-methyl-1H-indazol-5-yl)methoxy)pyridin-2-yl)benzyl)-1-(oxetan-2-ylmethyl)-1H-benzo[d]imidazole-6-carboxylic acid] is 0.509 nM.

For the compound `CC1(C)COC[C@H]1n1c(Cc2cc(F)c(-c3ccnc(OCc4ccc(-n5ccnn5)cc4)n3)cc2F)nc2ccc(C(=O)O)cc21` [Example 182, (S)-2-(4-(2-((4-(1H-1,2,3-triazol-1-yl)benzyl)oxy)pyrimidin-4-yl)-2,5-difluorobenzyl)-1-(4,4-dimethyltetrahydrofuran-3-yl)-1H-benzo[d]imidazole-6-carboxylic Acid], it took 0.178 nM to reach a half-maximal effect (EC50).
